pIC50: −log10 of the molar value.
Assays:
B2 bradykinin receptor [1] = target: T1, B2 bradykinin receptor (Cavia porcellus, UniProt O70526); test: In vitro antagonistic activity for Bradykinin receptor B2 by guinea pig ileal membrane receptor assay.; format: functional
T1 sequence (O70526 whole entry): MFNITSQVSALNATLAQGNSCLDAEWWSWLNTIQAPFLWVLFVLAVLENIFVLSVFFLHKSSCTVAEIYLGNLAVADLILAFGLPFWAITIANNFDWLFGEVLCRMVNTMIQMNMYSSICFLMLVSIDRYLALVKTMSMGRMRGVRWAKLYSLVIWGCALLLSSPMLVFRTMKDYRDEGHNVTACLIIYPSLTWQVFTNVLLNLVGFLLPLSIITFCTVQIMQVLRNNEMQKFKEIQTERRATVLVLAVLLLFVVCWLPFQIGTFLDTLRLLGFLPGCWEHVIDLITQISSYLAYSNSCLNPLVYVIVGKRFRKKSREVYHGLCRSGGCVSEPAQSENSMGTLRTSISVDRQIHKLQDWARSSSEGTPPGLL

B2 bradykinin receptor [2] = target: T1, B2 bradykinin receptor; test: In vitro antagonistic activity for Bradykinin receptor B2 by guinea pig pulmonary artery assay.; format: functional
Rattus norvegicus [3] = test: Distribution in bladder and urine of healthy rat 24 hr after iv injection into the femoral vein; format: ADME, organism-based, Urinary bladder/Urine; details: in vivo
Rattus norvegicus [4] = test: Distribution in bladder and urine of healthy rat 30 min after iv injection into the femoral vein; format: ADME, organism-based, Urinary bladder/Urine; details: in vivo, 0.5 h
Rattus norvegicus [5] = test: Distribution in bladder and urine of healthy rat 4 hr after iv injection into the femoral vein; format: ADME, organism-based, Urinary bladder/Urine; details: in vivo
Rattus norvegicus [6] = test: Distribution in bladder and urine of healthy rat 5 min after iv injection into the femoral vein; format: ADME, organism-based, Urinary bladder/Urine; details: in vivo
Rattus norvegicus [7] = test: Distribution in blood of healthy rat 15 min after iv injection into the femoral vein; format: ADME, organism-based; details: in vivo, 0.25 h
Rattus norvegicus [8] = test: Distribution in blood of healthy rat 24 hr after iv injection into the femoral vein; format: ADME, organism-based; details: in vivo
Rattus norvegicus [9] = test: Distribution in blood of healthy rat 30 min after iv injection into the femoral vein; format: ADME, organism-based; details: in vivo, 0.5 h
Rattus norvegicus [10] = test: Distribution in blood of healthy rat 4 hr after iv injection into the femoral vein; format: ADME, organism-based; details: in vivo
Rattus norvegicus [11] = test: Distribution in blood of healthy rat 5 min after iv injection into the femoral vein; format: ADME, organism-based; details: in vivo
Rattus norvegicus [12] = test: Distribution in colon of healthy rat 15 min after iv injection into the femoral vein; format: ADME, organism-based; details: in vivo, 0.25 h
Rattus norvegicus [13] = test: Distribution in colon of healthy rat 24 hr after iv injection into the femoral vein; format: ADME, organism-based; details: in vivo
Rattus norvegicus [14] = test: Distribution in colon of healthy rat 30 min after iv injection into the femoral vein; format: ADME, organism-based; details: in vivo, 0.5 h
Rattus norvegicus [15] = test: Distribution in colon of healthy rat 4 hr after iv injection into the femoral vein; format: ADME, organism-based; details: in vivo
Rattus norvegicus [16] = test: Distribution in colon of healthy rat 5 min after iv injection into the femoral vein; format: ADME, organism-based; details: in vivo
Rattus norvegicus [17] = test: Distribution in content of colon of healthy rat 15 min after iv injection into the femoral vein; format: ADME, organism-based; details: in vivo, 0.25 h
Rattus norvegicus [18] = test: Distribution in content of colon of healthy rat 24 hr after iv injection into the femoral vein; format: ADME, organism-based; details: in vivo
Rattus norvegicus [19] = test: Distribution in content of colon of healthy rat 30 min after iv injection into the femoral vein; format: ADME, organism-based; details: in vivo, 0.5 h
Rattus norvegicus [20] = test: Distribution in content of colon of healthy rat 4 hr after iv injection into the femoral vein; format: ADME, organism-based; details: in vivo
Rattus norvegicus [21] = test: Distribution in content of colon of healthy rat 5 min after iv injection into the femoral vein; format: ADME, organism-based; details: in vivo
Rattus norvegicus [22] = test: Distribution in content of small intestine of healthy rat 15 min after iv injection into the femoral vein; format: ADME, organism-based; details: in vivo, 0.25 h
Rattus norvegicus [23] = test: Distribution in content of small intestine of healthy rat 30 min after iv injection into the femoral vein; format: ADME, organism-based; details: in vivo, 0.5 h
Rattus norvegicus [24] = test: Distribution in content of small intestine of healthy rat 4 hr after iv injection into the femoral vein; format: ADME, organism-based; details: in vivo
Rattus norvegicus [25] = test: Distribution in content of small intestine of healthy rat 5 min after iv injection into the femoral vein; format: ADME, organism-based; details: in vivo
[26] = Distribution in feces of healthy rat 24 hr after iv injection into the femoral vein; format: ADME, organism-based; details: faeces, read-out: Organ distribution
Rattus norvegicus [27] = test: Distribution in lung of healthy rat 24 hr after iv injection into the femoral vein; format: ADME, organism-based; details: in vivo
Rattus norvegicus [28] = test: Distribution in lung of healthy rat 30 min after iv injection into the femoral vein; format: ADME, organism-based; details: in vivo, 0.5 h
Rattus norvegicus [29] = test: Distribution in lung of healthy rat 4 hr after iv injection into the femoral vein; format: ADME, organism-based; details: in vivo
Rattus norvegicus [30] = test: Distribution in lung of healthy rat 5 min after iv injection into the femoral vein; format: ADME, organism-based; details: in vivo
Rattus norvegicus [31] = test: Distribution in small intestine of healthy rat 15 min after iv injection into the femoral vein; format: ADME, organism-based; details: in vivo, 0.25 h
Rattus norvegicus [32] = test: Distribution in small intestine of healthy rat 24 hr after iv injection into the femoral vein; format: ADME, organism-based; details: in vivo
Rattus norvegicus [33] = test: Distribution in small intestine of healthy rat 30 min after iv injection into the femoral vein; format: ADME, organism-based; details: in vivo, 0.5 h
Rattus norvegicus [34] = test: Distribution in small intestine of healthy rat 4 hr after iv injection into the femoral vein; format: ADME, organism-based; details: in vivo
Rattus norvegicus [35] = test: Distribution in small intestine of healthy rat 5 min after iv injection into the femoral vein; format: ADME, organism-based; details: in vivo
Rattus norvegicus [36] = test: Distribution in spleen of healthy rat 15 min after iv injection into the femoral vein; format: ADME, organism-based; details: in vivo, 0.25 h
Rattus norvegicus [37] = test: Distribution in spleen of healthy rat 24 hr after iv injection into the femoral vein; format: ADME, organism-based; details: in vivo
Rattus norvegicus [38] = test: Distribution in spleen of healthy rat 30 min after iv injection into the femoral vein; format: ADME, organism-based; details: in vivo, 0.5 h
Rattus norvegicus [39] = test: Distribution in spleen of healthy rat 4 hr after iv injection into the femoral vein; format: ADME, organism-based; details: in vivo
Rattus norvegicus [40] = test: Distribution in stomach of healthy rat 15 min after iv injection into the femoral vein; format: ADME, organism-based; details: in vivo, 0.25 h
Rattus norvegicus [41] = test: Distribution in stomach of healthy rat 24 hr after iv injection into the femoral vein; format: ADME, organism-based; details: in vivo
Rattus norvegicus [42] = test: Distribution in stomach of healthy rat 30 min after iv injection into the femoral vein; format: ADME, organism-based; details: in vivo, 0.5 h
Rattus norvegicus [43] = test: Distribution in stomach of healthy rat 4 hr after iv injection into the femoral vein; format: ADME, organism-based; details: in vivo
Rattus norvegicus [44] = test: Distribution in stomach of healthy rat 5 min after iv injection into the femoral vein; format: ADME, organism-based; details: in vivo
Rattus norvegicus [45] = test: Distribution in thyroid gland of healthy rat 15 min after iv injection into the femoral vein; format: ADME, organism-based; details: in vivo, 0.25 h
Rattus norvegicus [46] = test: Distribution in thyroid gland of healthy rat 24 hr after iv injection into the femoral vein; format: ADME, organism-based; details: in vivo
Rattus norvegicus [47] = test: Distribution in thyroid gland of healthy rat 30 min after iv injection into the femoral vein; format: ADME, organism-based; details: in vivo, 0.5 h
Rattus norvegicus [48] = test: Distribution in thyroid gland of healthy rat 4 hr after iv injection into the femoral vein; format: ADME, organism-based; details: in vivo
Rattus norvegicus [49] = test: Distribution in thyroid gland of healthy rat 5 min after iv injection into the femoral vein; format: ADME, organism-based; details: in vivo
Rattus norvegicus [50] = test: Distribution in lung of healthy rat 15 min after iv injection into the femoral vein; format: ADME, organism-based; details: in vivo, 0.25 h
Rattus norvegicus [51] = test: Distribution in kidney of healthy rat 15 min after iv injection into the femoral vein; format: ADME, organism-based; details: in vivo, 0.25 h
Rattus norvegicus [52] = test: Distribution in kidney of healthy rat 24 hr after iv injection into the femoral vein; format: ADME, organism-based; details: in vivo
Rattus norvegicus [53] = test: Distribution in kidney of healthy rat 4 hr after iv injection into the femoral vein; format: ADME, organism-based; details: in vivo
Rattus norvegicus [54] = test: Distribution in kidney of healthy rat 5 min after iv injection into the femoral vein; format: ADME, organism-based; details: in vivo
Rattus norvegicus [55] = test: Distribution in liver of healthy rat 15 min after iv injection into the femoral vein; format: ADME, organism-based; details: in vivo, 0.25 h
Rattus norvegicus [56] = test: Distribution in liver of healthy rat 24 hr after iv injection into the femoral vein; format: ADME, organism-based; details: in vivo
Rattus norvegicus [57] = test: Distribution in liver of healthy rat 30 min after iv injection into the femoral vein; format: ADME, organism-based; details: in vivo, 0.5 h
Rattus norvegicus [58] = test: Distribution in liver of healthy rat 4 hr after iv injection into the femoral vein; format: ADME, organism-based; details: in vivo
Rattus norvegicus [59] = test: Distribution in liver of healthy rat 5 min after iv injection into the femoral vein; format: ADME, organism-based; details: in vivo
Rattus norvegicus [60] = test: Distribution in spleen of healthy rat 5 min after iv injection into the femoral vein; format: ADME, organism-based; details: in vivo
Rattus norvegicus [61] = test: Distribution in kidney of healthy rat 30 min after iv injection into the femoral vein; format: ADME, organism-based; details: in vivo, 0.5 h
Rattus norvegicus [62] = test: Distribution in bladder and urine of healthy rat 15 min after iv injection into the femoral vein; format: ADME, organism-based, Urinary bladder/Urine; details: in vivo, 0.25 h
Rattus norvegicus [63] = test: Distribution in content of small intestine of healthy rat 24 hr after iv injection into the femoral vein; format: ADME, organism-based; details: in vivo

N=C(N)NCCC[C@H](NC(=O)[C@@H]1C[C@@H]2CCCC[C@@H]2N1C(=O)[C@H]1Cc2ccccc2CN1C(=O)[C@H](CO)NC(=O)[C@H](Cc1cccs1)NC(=O)CNC(=O)[C@@H]1C[C@@H](O)CN1C(=O)[C@@H]1CCCN1C(=O)[C@H](CCCNC(=N)N)NC(=O)[C@@H](CCCNC(=N)N)NC(=O)c1ccc(CN2CCCNCCNCCCNCC2)cc1)C(=O)O
pIC50 (B2 bradykinin receptor [1]): 8.10
pIC50 (B2 bradykinin receptor [2]): 7.85
Organ distribution (Rattus norvegicus [3]): 79.9%
Organ distribution (Rattus norvegicus [4]): 33%
Organ distribution (Rattus norvegicus [5]): 74.9%
Organ distribution (Rattus norvegicus [6]): 3.83%
Organ distribution (Rattus norvegicus [7]): 8.62%
Organ distribution (Rattus norvegicus [8]): 0.5%
Organ distribution (Rattus norvegicus [9]): 5.5%
Organ distribution (Rattus norvegicus [10]): 0.5%
Organ distribution (Rattus norvegicus [11]): 13.2%
Organ distribution (Rattus norvegicus [12]): 0.65%
Organ distribution (Rattus norvegicus [13]): 0.09%
Organ distribution (Rattus norvegicus [14]): 0.48%
Organ distribution (Rattus norvegicus [15]): 0.44%
Organ distribution (Rattus norvegicus [16]): 1%
Organ distribution (Rattus norvegicus [17]): 0.2%
Organ distribution (Rattus norvegicus [18]): 0.56%
Organ distribution (Rattus norvegicus [19]): 0.17%
Organ distribution (Rattus norvegicus [20]): 6.96%
Organ distribution (Rattus norvegicus [21]): 0.22%
Organ distribution (Rattus norvegicus [22]): 2.79%
Organ distribution (Rattus norvegicus [23]): 4.84%
Organ distribution (Rattus norvegicus [24]): 1.85%
Organ distribution (Rattus norvegicus [25]): 1.83%
dose excreted at 24 h [26]: 8.4%
Organ distribution (Rattus norvegicus [27]): 0.04%
Organ distribution (Rattus norvegicus [28]): 0.55%
Organ distribution (Rattus norvegicus [29]): 0.1%
Organ distribution (Rattus norvegicus [30]): 1.2%
Organ distribution (Rattus norvegicus [31]): 3.74%
Organ distribution (Rattus norvegicus [32]): 0.19%
Organ distribution (Rattus norvegicus [33]): 1.67%
Organ distribution (Rattus norvegicus [34]): 0.71%
Organ distribution (Rattus norvegicus [35]): 2.92%
Organ distribution (Rattus norvegicus [36]): 0.19%
Organ distribution (Rattus norvegicus [37]): 0.08%
Organ distribution (Rattus norvegicus [38]): 0.19%
Organ distribution (Rattus norvegicus [39]): 0.12%
Organ distribution (Rattus norvegicus [40]): 1.13%
Organ distribution (Rattus norvegicus [41]): 0.06%
Organ distribution (Rattus norvegicus [42]): 0.91%
Organ distribution (Rattus norvegicus [43]): 0.46%
Organ distribution (Rattus norvegicus [44]): 1.55%
Organ distribution (Rattus norvegicus [45]): 0.11%
Organ distribution (Rattus norvegicus [46]): 0.01%
Organ distribution (Rattus norvegicus [47]): 0.11%
Organ distribution (Rattus norvegicus [48]): 0.02%
Organ distribution (Rattus norvegicus [49]): 0.12%
Organ distribution (Rattus norvegicus [50]): 0.82%
Organ distribution (Rattus norvegicus [51]): 7%
Organ distribution (Rattus norvegicus [52]): 3.07%
Organ distribution (Rattus norvegicus [53]): 4.33%
Organ distribution (Rattus norvegicus [54]): 8.46%
Organ distribution (Rattus norvegicus [55]): 4.48%
Organ distribution (Rattus norvegicus [56]): 2.72%
Organ distribution (Rattus norvegicus [57]): 4.31%
Organ distribution (Rattus norvegicus [58]): 5.03%
Organ distribution (Rattus norvegicus [59]): 5.25%
Organ distribution (Rattus norvegicus [60]): 0.27%
Organ distribution (Rattus norvegicus [61]): 8.86%
Organ distribution (Rattus norvegicus [62]): 20.3%
Organ distribution (Rattus norvegicus [63]): 0.06%

Source: ChEMBL document CHEMBL1128686, “Technetium-99m-labeled HOE 140: a potential bradykinin B2 receptor imaging agent” (J Med Chem, 1995)
